# Results taken from the SangsterLogP compilation.
# Assay: method code SF, from Hansch, C. & Leo, A. (1987). Log P database [Dataset]. Pomona College Medicinal Chemistry Project.
Compound,logP,other results
CC(=O)Oc1ccc([N+](=O)[O-])cc1,1.5,–
S=c1cc[nH]cc1,0.2,–
O=C(O)c1ccc[nH]1,–,logD (pH 2.0): 0.85
O=c1[nH]c(=O)n([C@H]2C[C@H](O)[C@@H](CO)O2)cc1F,-1.16,–
CCn1c(=O)c(N(C)C)c(C)n(-c2ccccc2)c1=O,–,logD (pH 7.4): 2.29
CSc1ncnc2c1ncn2[C@@H]1O[C@H](CO)[C@@H](O)[C@@H]1O,0.09,–
CN(C(=O)CCBr)c1ccc(S(=O)(=O)N(C)C)cc1,1.13,–
CCOC(=O)N=[N+]([O-])c1ccccc1,2.53,–
Cc1nn(-c2ccccc2)c(C)c1N=O,2.28,–
O=[N+]([O-])c1ccc2[nH]c(CCCc3nc4cc([N+](=O)[O-])ccc4[nH]3)nc2c1,1.62,–
CC(=O)c1c(O)oc(=O)c(/C(C)=N/c2ccccc2)c1O,–,logD (pH 1.0): 2.58
O=C(COc1ccccc1)Nc1ccccc1,2.73,–
CC(=O)NO,-1.59,–
ClC(Cl)(Cl)c1ccc(C(Cl)(Cl)Cl)cc1,4.62,–
Cc1ccc(N2C(N)=NC(N)=NC2(C)C)cc1,–,logD (pH 13.0): 0.85
Cc1ccc(/C=C/[N+](=O)[O-])cc1,2.66,–
Nc1cccc([N+](=O)[O-])c1N,1.27,–
COc1ccc(C(N)=O)cc1/N=N/N(C)C,0.44,–
CCN(CC)c1c(C)n(-c2ccccc2)c(=O)n(CC)c1=O,–,logD (pH 7.4): 2.78
Cn1ccc(=O)[nH]c1=O,-1.2,–
CNP(=O)(OC)Oc1ccc(Cl)cc1 (stereo unspecified),1.85,–
O=C1c2ccccc2C(=O)C1(O)O,0.67,–
O=[N+]([O-])c1ccc2[nH]c(CCCCCc3nc4cc([N+](=O)[O-])ccc4[nH]3)nc2c1,1.97,–
Oc1cccnc1,0.48,–
O=C(C(=O)c1ccco1)c1ccco1,1.24,–
CCOS(=O)(=O)c1ccc(C)cc1,1.81,–

Compound,logP,other results
N#Cc1c[nH]c(=O)[nH]c1=O,–,logD (pH 1.0): -0.93
CCOC(CP(=O)(OCC)OCC)OCC,0.69,–
COc1cc2c(c(OC)c1OC)-c1ccc(O)c(=O)cc1[C@@H](N)CC2,0.26,–
Nc1cccc2c1C(=O)c1ccccc1C2=O,2.87,–
CC1CCCCC1(C)NC(=O)N(CCCl)N=O (stereo unspecified),2.57,–
O=C(C(=O)c1ccccc1)c1ccccc1,3.38,–
COc1cccc(OC)c1OC,1.53,–
CCOP(=O)(OCC)Oc1ccc(SC)cc1,2.79,–
O=C(c1ccccc1)c1cccc(NS(=O)(=O)C(F)F)c1,–,logD (pH 5.4): 2.86
O=CNc1nccs1,0.54,–
CSC(=O)Nc1ccc(Cl)c(Cl)c1,4.23,–
Nc1cc(C(F)(F)F)cc(C(F)(F)F)c1,3.57,–
CO[C@H]1O[C@H](CO)[C@@H](O)[C@H](NC(=O)N(C)N=O)[C@H]1O,–,logD (pH 7.4): -1.45
CCCOCCC(=O)N(C)c1ccc(S(=O)(=O)N(C)C)cc1,1.26,–
O=C(Cc1ccccc1)Nc1ccc(Cl)c(Cl)c1,4.47,–
O=C1C=CC(=NCl)C=C1,1.26,–
CCCCCc1cn[nH]c1,2.96,–
CC1(C)O[C@@H]2C[C@H]3[C@@H]4CCC5=CC(=O)C=C[C@]5(C)[C@@]4(F)[C@@H](O)C[C@]3(C)[C@]2(C(=O)CO)O1,2.53,–
O=C(O)CNc1ccccc1,0.62,–
CCCCOc1cccc(C=C(C(C)=O)C(=O)OCC)c1,3.12,–
CCOC(=O)C(=Cc1ccc(Cl)cc1)C(C)=O,3.04,–
COc1ccccc1CO,–,logD (pH 7.0): 1.13
CC(C)(O)C(Cl)(Cl)Cl,2.03,–
CCOC(=O)C(=Cc1ccccc1C)C(=O)OCC,3.22,–
CCOC(=Cc1ccccc1)C(=O)NC(C)CC (stereo unspecified),3.2,–
CN(C)C(=O)/C=C/c1ccccc1,1.73,–

Compound,logP,other results
N/N=C1\c2ccccc2C(=O)C1C(=O)C(c1ccccc1)c1ccccc1 (stereo unspecified),3.62,–
FC(Cl)Cl,1.55,–
O=[N+]([O-])c1ccc(O[C@@H]2O[C@H](CO)[C@@H](O[C@H]3O[C@H](CO)[C@@H](O)[C@H](O)[C@H]3O)[C@H](O)[C@H]2O)cc1,-1.39,–
CCC(C)NC(=O)C(=Cc1ccccc1)Cc1ccccc1 (stereo unspecified),3.99,–
CCCCNP(=O)(OC)Oc1cc(Cl)c(Cl)cc1Cl (stereo unspecified),4.18,–
CC(O)COc1cccc2oc(C(=O)O)cc(=O)c12 (stereo unspecified),–,logD (pH 0.5): 1.32
CCCC(C(=O)OCCN(CC)CC)(c1ccccc1)c1ccccc1,4.65,–
CCOC(=O)CON=Cc1ccc(OCC(=O)OCC)c(OC)c1,1.87,–
CC(=O)Nc1cccc(OC(C)=O)c1,–,logD (pH 7.0): 1.03
CCCCC(=O)Nc1ccccc1,2.61,–
Cc1c(C2(c3cc(C(C)C)c(O)c(Br)c3C)OS(=O)(=O)c3ccccc32)cc(C(C)C)c(O)c1Br,2.78,–
CCCCOc1cccc(N2C(N)=NC(N)=NC2(C)C)c1,–,logD (pH 13.0): 2.03
CNC(=O)Oc1ccccc1C1OCCO1,0.67,–
c1ccc2c(c1)CCC2,3.33,–
CCOC(=O)C(=O)c1cccs1,1.77,–
O=C(Cc1ccccc1)c1ccccc1,3.18,–
CCOC(=O)NC1=C(N2CC2)C(=O)C(NC(=O)OCC)=C(N2CC2)C1=O,0.05,–
Nc1cccc2nc3ccccc3cc12,2.47,–
O=C(CO)NCc1ccccc1,0.55,–
CCNCCc1cccnc1,–,logD (pH 11.0): 0.54
CS(=O)c1ccccc1 (stereo unspecified),0.55,–
COc1ccc(OC(C)=O)cc1,1.54,–
O=[N+]([O-])c1ccc2[nH]c(C(O)C(O)c3nc4cc([N+](=O)[O-])ccc4[nH]3)nc2c1 (stereo unspecified),1.45,–
Nc1cc(OCC(=O)O)ccc1Cl,1.16,–
NNC(=O)c1ccncc1,-0.5,–
CCC(C)c1ccccc1O (stereo unspecified),3.27,–

Compound,logP,other results
C=CCn1c(=O)c(N(C)C)c(C)n(-c2ccccc2)c1=O,–,logD (pH 7.4): 1.98
COc1ccc(NC(C)=O)cc1,1.1,–
N#CN=[N+]([O-])c1cccc(C#N)c1,1.15,–
Cc1ccc2[nH]c(CCCCc3nc4cc(C)ccc4[nH]3)nc2c1,1.64,–
NC(=O)c1ccc(N)nc1,–,logD (pH 7.0): 0.7
O=S(=O)(Nc1cn[nH]c1)c1ccccc1,0.87,–
O=C(O)COc1ccc(Cl)c(Cl)c1,2.81,–
O=C(O)COc1ccc(Cl)c(C(=O)O)c1,1.07,–
COC(=O)c1cccc(NC(C)=O)c1,1.46,–
CNC(=O)Oc1cc(Cl)ccc1Cl,2.44,–
Cc1c(N(C)C)c(=O)n(C)c(=O)n1-c1ccccc1,–,logD (pH 7.4): 1.19
O=[N+]([O-])c1ccc(N2CCCCC2)cc1,3.26,–
CCc1cnc(C=Cc2ccc([N+](=O)[O-])o2)nc1,1.55,–
CC1=Nc2cc(C)ccc2S(=O)(=O)N1,0.74,–
O=C(Nc1ccccc1)c1ccc(C(=O)Nc2ccccc2)cc1,3.72,–
O=C(O)c1cccc(CSc2ccccc2)c1O,4.28,–
O=c1cc(-c2ccccc2)oc2cc(O)ccc12,3.62,–
CCOc1cc(Cc2cnc(N)nc2N)cc(OCC)c1,–,logD (pH 13.0): 2.52
Nc1nc(N)c2ncn(COCCO)c2n1,–,logD (pH 13.0): -1.06
CN(C)CCCc1ccco1,2.08,–
CCC(=O)OCC(=O)[C@@]1(OC(=O)CC)[C@@H](C)C[C@H]2[C@@H]3CCC4=CC(=O)C=C[C@]4(C)[C@@]3(F)[C@@H](O)C[C@@]21C,4.07,–
c1ccc2[nH]nnc2c1,1.33,–
COC(=O)c1ccc[nH]1,1.17,–
O=[N+]([O-])c1cccc(C(F)(F)F)c1,–,logD (pH 7.0): 2.62
COc1cc(C=NOC(=O)c2ccccc2OC)ccc1OCCO,2.84,–
CCOP(=O)(OCC)Oc1ccc(SC)cc1Cl,3.05,–

Compound,logP,other results
CCN(CC)Cc1cccnc1,–,logD (pH 11.0): 1.01
CC(=O)Sc1ccccc1,2.23,–
COc1ccccc1OC(C)=O,1.38,–
COC(=O)c1ccc(C(=O)OC)cc1,–,logD (pH 7.0): 2.25
CCC(C)NC(=O)C=C(c1ccc(Cl)cc1)C(C)C (stereo unspecified),4.03,–
Cc1ccccc1OC(=O)N(C)C,1.86,–
NC(=O)c1ccc(I)cc1,1.99,–
NC(=O)c1cccc(O)c1,0.39,–
CCC(C)C1=Nc2ccc(Cl)cc2S(=O)(=O)N1 (stereo unspecified),2.47,–
CC=NO,-0.13,–
CCCCC1OC(=O)c2cc(Cl)ccc21 (stereo unspecified),3.53,–
FC(F)OC(Cl)C(F)(F)F (stereo unspecified),2.06,–
CC(=O)NCc1ccccc1,0.95,–
C=CC=O,-0.01,–
CC1=Nc2cccc(Cl)c2S(=O)(=O)N1,0.62,–
S=C=Nc1ccccc1,3.25,–
CCC1(C(C)CC(C)O)C(=O)NC(=O)NC1=O (stereo unspecified),0.35,–
NC(=O)N/N=C/c1ccccc1,1.27,–
Clc1ccc2[nH]c(CCCCCc3nc4cc(Cl)ccc4[nH]3)nc2c1,1.98,–
C=CCn1c(C)c(N(C)C)c(=O)n(-c2ccccc2)c1=O,–,logD (pH 7.4): 1.44
COc1cc2c(c3c1c(=O)c1ccccc1n3C)C=CC(C)(C)O2,3.67,–
O=C(O)c1ccccc1-c1ccccc1,–,logD (pH 1.0): 2.89
O=C(O)c1ccncc1,-0.57,–
O=Cc1cccc([N+](=O)[O-])c1,–,logD (pH 7.0): 1.47
ONc1ccccc1,0.79,–
CC(=O)Nc1cccc(C(C)=O)c1,1.1,–

Compound,logP,other results
CCOC(=O)c1cccc([N+](=O)[O-])c1,–,logD (pH 7.0): 2.35
CCCCC[N+](=O)[O-],2.01,–
c1cncc([C@@H]2CCCN2)c1,–,logD (pH 11.0): 0.17
O=C1OC(c2ccccc2)c2ccccc21 (stereo unspecified),2.64,–
COc1ccc2c(c1O)-c1cccc3c1C(C2)N(CCO)CC3 (stereo unspecified),–,logD (pH 7.4): 2.43
O=C1CCC2CCCCC2C1 (stereo unspecified),1.97,–
O=NN(CCF)C(=O)NCCCl,0.95,–
c1cc2[nH]cnc2cn1,0.18,–
O=C1CC(C(=O)O)Oc2ccccc21 (stereo unspecified),–,logD (pH 0.7): 1.26
CC(=O)OCC(=O)[C@@]12OC(C)(C)O[C@@H]1C[C@H]1[C@@H]3C[C@H](F)C4=CC(=O)C=C[C@]4(C)[C@@]3(F)[C@@H](O)C[C@@]12C,3.19,–
O=C(c1ccco1)C(O)c1ccco1 (stereo unspecified),0.54,–
CCNC(N)=O,-0.74,–
Cc1ccc2[nH]c(CCc3nc4cc(C)ccc4[nH]3)nc2c1,1.39,–
O=c1[nH]c2ccccc2s1,1.76,–
CSc1cccc(NC(C)=O)c1,2.14,–
CS(=O)(=O)OCCCCOS(C)(=O)=O,-0.52,–
CC(O)CCC(=O)c1ccoc1 (stereo unspecified),0.84,–
CC(=O)C(=Cc1cccc(Cl)c1)C(C)=O,2.26,–
CN(C)S(=O)(=O)c1ccccc1,1.35,–
S=c1cccc[nH]1,-0.13,–
CCOC(=O)C(=Cc1ccccc1Cl)C(C)=O,2.84,–
